Reference: publication PMC5286421, “Interactions of retinoids with the ABC transporters P-glycoprotein and Breast Cancer Resistance Protein” (Scientific Reports, 2017)
Where two headings read alike, the source gives them in different places.

Legend:
[1] = target: T1, ABCG2 (Homo sapiens, UniProt Q9UNQ0); test: Vanadate-sensitive ATPase activity of ABCG2 in Sf9 membrane preparations; assay type: biochemical; conditions: for IC50 values, ABCG2 stimulated (quercetin-stimulated) ATPase activity / IC50 values, ABCG2 basal ATPase activity / IC50: cholesterol-loaded Sf9 membranes, mean ± SEM, n=3; for Change of apparent KM of quercetin-stimulated ABCG2 ATPase activity / Change of vmax of quercetin-stimulated ABCG2 ATPase activity: Figs 5 and 6; for Type of inhibition of the quercetin-stimulated ATPase activity of ABCG2: modified Michaelis-Menten fit at different quercetin concentrations
T1 sequence (Q9UNQ0 1-655): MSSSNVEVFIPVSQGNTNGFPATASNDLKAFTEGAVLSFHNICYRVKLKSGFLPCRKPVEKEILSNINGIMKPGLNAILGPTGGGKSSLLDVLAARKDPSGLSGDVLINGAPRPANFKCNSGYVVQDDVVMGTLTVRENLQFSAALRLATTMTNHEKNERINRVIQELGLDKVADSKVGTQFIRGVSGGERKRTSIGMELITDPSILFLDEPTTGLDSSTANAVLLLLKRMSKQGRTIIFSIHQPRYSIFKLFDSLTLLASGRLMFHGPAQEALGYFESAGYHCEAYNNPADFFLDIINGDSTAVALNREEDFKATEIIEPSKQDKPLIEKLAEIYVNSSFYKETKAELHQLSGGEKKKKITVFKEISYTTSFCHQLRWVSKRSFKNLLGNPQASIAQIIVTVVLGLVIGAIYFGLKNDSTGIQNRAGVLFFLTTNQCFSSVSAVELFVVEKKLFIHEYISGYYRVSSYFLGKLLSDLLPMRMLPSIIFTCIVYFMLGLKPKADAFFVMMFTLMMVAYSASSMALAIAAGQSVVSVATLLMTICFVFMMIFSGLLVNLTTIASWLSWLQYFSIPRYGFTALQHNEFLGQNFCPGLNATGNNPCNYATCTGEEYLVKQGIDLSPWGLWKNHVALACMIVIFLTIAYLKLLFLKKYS
Procedure: For ATPase activity measurements we used membrane samples derived from Sf9 (Spodoptera frugiperda) insect ovarian cells expressing human Pgp or ABCG2. cDNAs of the transporters were cloned into recombinant baculovirus transfer vectors, the Sf9 insect ovarian cells were cultured, and infected with the baculoviruses as described in ref. [52]. Sf9 cells overexpressing human Pgp and ABCG2 were harvested and cell membranes were isolated. The protein concentration of the membrane samples were determined by the Lowry method. The ABCG2 expressing Sf9 membrane samples were loaded with cholesterol by cholesterol-methyl-beta-cyclodextrine complex in order to obtain high specific ATPase activity of the transporter. Membrane samples were stored at −80 °C. The transporter expression of the membrane samples (5 μg membrane protein/slot) was routinely checked by immunoblot using the G-1 mAb (for Pgp) or BXP-21 mAb (for ABCG2) and a goat anti-mouse HRP-conjugated IgG secondary antibody. Both primary and secondary antibodies were from Santa Cruz Biotechnology Inc. (CA, USA) and applied at 1:5,000 dilution.
The vanadate-sensitive ATPase activity of Pgp and ABCG2 was determined by a colorimetric assay described in refs [32],[55]. Specific ATPase activity of the transporters was calculated from the amount of released inorganic phosphate. […]. The absorbance of the samples was measured at 700 nm using a BioTek Synergy HT plate reader (BioTek Instruments, Winooski, USA).
The half-inhibitory doses (IC50) of retinoids were determined by fitting the dose-response relationships with a four parameter sigmoidal curve, where Amax and Amin are the ATPase activities measured at zero and at infinitely high inhibitor concentrations, respectively, n is the Hill coefficient and x is the concentration of the inhibitor:
Upon studying the kinetics of inhibition of the substrate-stimulated ATPase activity by retinoids data points were fitted with a modified form of the Michaelis-Menten equation[56] which includes the Hill coefficient, n: […]
v0 is the basal ATPase activity measured in the absence of the stimulatory substrate, while vmax is the maximal extent of ATPase stimulation and KM is the Michaelis constant (i.e. the substrate concentration at which the reaction rate is half of vmax).

[2] = target: T2, Pgp (Homo sapiens, UniProt P08183); conditions: for IC50 values, Pgp stimulated (verapamil-stimulated) ATPase activity: 40 μM verapamil; for IC50 values, Pgp stimulated (verapamil-stimulated) ATPase activity / IC50 values, Pgp basal ATPase activity: Sf9 membranes, mean ± SEM, n=3; for IC50 values, Pgp basal ATPase activity: 10 min pre-incubation 37 °C, 3 mM ATP/Mg2+ 25 min; for Change of apparent KM of verapamil-stimulated Pgp ATPase activity / Change of vmax of verapamil-stimulated Pgp ATPase activity: Figs 5 and 6; for Type of inhibition of the verapamil-stimulated ATPase activity of Pgp: modified Michaelis-Menten fit at different verapamil concentrations
Procedure: (§1) For ATPase activity measurements we used membrane samples derived from Sf9 (Spodoptera frugiperda) insect ovarian cells expressing human Pgp or ABCG2. cDNAs of the transporters were cloned into recombinant baculovirus transfer vectors, the Sf9 insect ovarian cells were cultured, and infected with the baculoviruses as described in ref. [52]. Sf9 cells overexpressing human Pgp and ABCG2 were harvested and cell membranes were isolated. The protein concentration of the membrane samples were determined by the Lowry method[53]. The ABCG2 expressing Sf9 membrane samples were loaded with cholesterol by cholesterol-methyl-beta-cyclodextrine complex in order to obtain high specific ATPase activity of the transporter[54]. Membrane samples were stored at −80 °C. The transporter expression of the membrane samples (5 μg membrane protein/slot) was routinely checked by immunoblot using the G-1 mAb (for Pgp) or BXP-21 mAb (for ABCG2) and a goat anti-mouse HRP-conjugated IgG secondary antibody. Both primary and secondary antibodies were from Santa Cruz Biotechnology Inc. (CA, USA) and applied at 1:5,000 dilution.
(§2) The vanadate-sensitive ATPase activity of Pgp and ABCG2 was determined by a colorimetric assay described in refs [32],[55]. Specific ATPase activity of the transporters was calculated from the amount of released inorganic phosphate. […] The absorbance of the samples was measured at 700 nm using a BioTek Synergy HT plate reader (BioTek Instruments, Winooski, USA).

[3] = test system: NIH 3T3 / NIH 3T3 MDR1 and MDCK / MDCK ABCG2 cells; test: DPH steady-state fluorescence anisotropy (membrane fluidity); conditions: retinoids 100 μM; for Effect on DPH fluorescence anisotropy: cyclosporin 10 μM, Ko143 2 μM, 10 min 37 °C, all tested cell lines; for Effect on DPH anisotropy in transporter expressing compared to non-expressing cells: Pgp+ vs Pgp− NIH 3T3, ABCG2 expressing vs non-expressing MDCK
[4] = target: T2, Pgp; test: Calcein accumulation test (Pgp transport activity) in NIH 3T3 MDR1 cells; conditions: 20 min pre-treatment 37 °C, 500 nM calcein-AM 20 min
Procedure: (§3) Calcein-AM was applied to measure the transport activity of Pgp[51], while ABCG2 mediated transport was measured in mitoxantrone accumulation tests[18]. Cells were harvested and washed three times in PBS containing 7 mM glucose (gl-PBS). […] Dead cells were excluded from the analysis on the basis of propidium iodide (PI) staining.
(§4) Flow cytometric analysis was carried out on a Becton Dickinson FACSAria III Cell Sorter (Becton Dickinson, Mountain View, CA, USA). Calcein was excited by the 488 nm line of a solid state laser and the emitted light was detected using a 502 nm dichroic mirror and a 530/30 nm band-pass filter. […] AlexaFluor647 and mitoxantrone signals were detected with a 633 nm excitation laser and a 660/20 nm band-pass filter.

[5] = target: T1, ABCG2; test: Mitoxantrone accumulation test (ABCG2 transport activity) in MDCK ABCG2 cells; conditions: 20 min pre-treatment 37 °C, 5 μM mitoxantrone 40 min
Procedure: as §3, §4

[6] = test system: Pgp- and ABCG2-negative NIH 3T3 and MDCK cells; test: Calcein and mitoxantrone accumulation in transporter negative cells; assay type: cell-based, mouse / canine; conditions: NIH 3T3 (calcein) and MDCK (mitoxantrone), Supplementary Fig. S1, 50 µM
Procedure: Supplementary Fig. S1: Effect of retinoid derivatives on the calcein (a) and
mitoxantrone (c) accumulation and viability (b, d) of Pgp- and ABCG2-negative NIH
3T3 and MDCK cells. Cells were pre-treated with retinoids added at 50 µM concentration
Cell viability was determined on the basis of propidium iodide exclusion.
(1 picture or pasted object on this page, not shown here)

[7] = cited from earlier work; for Plasma concentrations resulting from chemotherapy use: treatment of neuroblastoma or squamous cell carcinoma, ref [24][25][26]
[8] = target: T2, Pgp; test: biochemical; conditions: IC50 values, Sf9 membranes, mean ± SEM, n=3
Procedure: as §1, §2

[9] = cited from earlier work
[10] = test system: NIH 3T3 / NIH 3T3 MDR1 and MDCK / MDCK ABCG2 cells; test: TMA-DPH steady-state fluorescence anisotropy (membrane fluidity); conditions: 100 μM; NIH 3T3 and NIH 3T3 MDR1 cells
[11] = 10 μM quercetin, read-out: IC50 values, ABCG2 stimulated (quercetin-stimulated) ATPase activity
[12] = read-out: IC50 values, ABCG2 basal ATPase activity
[13] = Pgp basal ATPase activity, 10 min pre-incubation 37 °C, 3 mM ATP/Mg2+ 25 min
[14] = Pgp stimulated (verapamil-stimulated) ATPase activity, 40 μM verapamil

T2 sequence (P08183 whole entry): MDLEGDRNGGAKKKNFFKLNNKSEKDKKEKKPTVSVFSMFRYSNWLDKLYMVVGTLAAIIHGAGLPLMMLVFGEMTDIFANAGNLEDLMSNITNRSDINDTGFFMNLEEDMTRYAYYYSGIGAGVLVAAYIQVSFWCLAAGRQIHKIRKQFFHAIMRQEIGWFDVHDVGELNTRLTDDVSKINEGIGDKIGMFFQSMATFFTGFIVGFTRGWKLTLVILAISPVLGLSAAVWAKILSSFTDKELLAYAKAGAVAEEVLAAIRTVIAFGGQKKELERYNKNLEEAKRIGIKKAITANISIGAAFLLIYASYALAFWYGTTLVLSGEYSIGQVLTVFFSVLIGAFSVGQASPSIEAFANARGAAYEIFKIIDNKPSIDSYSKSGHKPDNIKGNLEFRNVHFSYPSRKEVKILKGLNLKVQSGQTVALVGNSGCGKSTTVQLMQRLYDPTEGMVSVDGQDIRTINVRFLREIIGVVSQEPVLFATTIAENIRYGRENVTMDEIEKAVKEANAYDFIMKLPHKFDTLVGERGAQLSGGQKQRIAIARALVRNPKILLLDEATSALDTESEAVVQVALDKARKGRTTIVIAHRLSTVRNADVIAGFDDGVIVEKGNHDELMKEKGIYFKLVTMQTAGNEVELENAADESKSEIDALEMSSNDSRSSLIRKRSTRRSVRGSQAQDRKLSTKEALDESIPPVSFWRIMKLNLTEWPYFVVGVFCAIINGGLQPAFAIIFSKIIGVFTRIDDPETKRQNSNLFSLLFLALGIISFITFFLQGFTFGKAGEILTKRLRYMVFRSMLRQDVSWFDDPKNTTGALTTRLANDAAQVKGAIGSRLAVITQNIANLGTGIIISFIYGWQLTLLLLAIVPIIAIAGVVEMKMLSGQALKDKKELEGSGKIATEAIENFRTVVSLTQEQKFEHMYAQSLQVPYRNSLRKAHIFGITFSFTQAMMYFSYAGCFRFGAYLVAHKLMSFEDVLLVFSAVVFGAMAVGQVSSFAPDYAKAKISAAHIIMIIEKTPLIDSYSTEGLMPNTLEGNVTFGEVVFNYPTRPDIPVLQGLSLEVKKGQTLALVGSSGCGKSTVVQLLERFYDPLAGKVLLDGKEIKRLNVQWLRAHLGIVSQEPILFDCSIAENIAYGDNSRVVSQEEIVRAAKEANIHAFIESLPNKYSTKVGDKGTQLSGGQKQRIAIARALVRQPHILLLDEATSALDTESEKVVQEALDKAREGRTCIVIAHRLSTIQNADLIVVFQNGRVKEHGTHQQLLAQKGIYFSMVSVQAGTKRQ

Row | Compound | IC50 values, ABCG2 stimulated (quercetin-stimulated) ATPase activity ([1]; 10 μM quercetin) | IC50 values, ABCG2 basal ATPase activity [1] | IC50 values, Pgp stimulated (verapamil-stimulated) ATPase activity [2] | IC50 values, Pgp basal ATPase activity [2] | Effect on DPH fluorescence anisotropy [3] | Effect on calcein accumulation of Pgp expressing cells (Pgp transport activity) [4] | Effect on mitoxantrone accumulation of ABCG2 expressing cells (ABCG2 transport activity) [5] | other results
1 | CC1=C(/C=C/C(C)=C\C=C\C(C)=C\C(=O)O)C(C)(C)CCC1 [9-cis-retinoic acid] | No effect | No effect | No effect | No effect | did not have any effect | none of them had any effect | none of them had any effect | –
2 | CC1=C(/C=C/C(C)=C/C=C/C(C)=C\C(=O)O)C(C)(C)CCC1 [13-cis-retinoic acid] | – | – | – | – | increased the DPH fluorescence anisotropy values significantly | increased the cellular accumulation of the fluorescent transporter substrates in a concentration dependent manner | increased the cellular accumulation of the fluorescent transporter substrates in a concentration dependent manner | Effect on substrate accumulation of transporter negative cells [6]: did not have any effect; IC50 [1, 11]: 76.5 ± 2.3 µM; Change of apparent KM of quercetin-stimulated ABCG2 ATPase activity [1]: apparent increase of the KMvalues; Change of vmax of quercetin-stimulated ABCG2 ATPase activity [1]: decreased the vmax value; IC50 [1, 12]: 70.6 ± 9 µM; Type of inhibition of the quercetin-stimulated ATPase activity of ABCG2 [1]: mixed-type transporter inhibition; Change of apparent KM of verapamil-stimulated Pgp ATPase activity [2]: did not induce statistically significant KM increase; Change of vmax of verapamil-stimulated Pgp ATPase activity [2]: decreased the vmax; Type of inhibition of the verapamil-stimulated ATPase activity of Pgp [2]: inhibits Pgp only non-competitively; Plasma concentrations resulting from chemotherapy use [7]: 10 to 20 µM; IC50 [8, 13]: 60.5 ± 11.4 µM; IC50 [8, 14]: 26.8 ± 2 µM; Effect on DPH anisotropy in transporter expressing compared to non-expressing cells [3]: similarly
3 | CC1=C(/C=C/C(C)=C/C=C/C(C)=C/C(=O)O)C(C)(C)CCC1=O [All-trans-4-oxo-retinoic acid, all-trans-4-oxo-retinoic acid] | No effect | No effect | Weak inhibition | No effect | – | – | – | –
4 | CC1=C(/C=C/C(C)=C/C=C/C(C)=C/C(=O)O)C(C)(C)CCC1 [All-trans-retinoic-acid, all-trans retinoic acid] | No effect | No effect | No effect | No effect | did not have any effect | none of them had any effect | none of them had any effect | Plasma concentrations resulting from chemotherapy use [7]: 10 to 20 µM
5 | CC1=C(/C=C/C(C)=C/C=C/C(C)=C/CO)C(C)(C)CCC1 [Retinol] | – | – | – | – | increased the DPH fluorescence anisotropy values significantly | increased the cellular accumulation of the fluorescent transporter substrates in a concentration dependent manner | increased the cellular accumulation of the fluorescent transporter substrates in a concentration dependent manner | Effect on substrate accumulation of transporter negative cells [6]: did not have any effect; IC50 [1, 11]: 95.2 ± 10.6 µM; Change of apparent KM of quercetin-stimulated ABCG2 ATPase activity [1]: increased the KM; Change of vmax of quercetin-stimulated ABCG2 ATPase activity [1]: decreased the vmax; IC50 [1, 12]: 31.6 ± 4.2 µM; Type of inhibition of the quercetin-stimulated ATPase activity of ABCG2 [1]: mixed-type transporter inhibition; Change of apparent KM of verapamil-stimulated Pgp ATPase activity [2]: increased the KM; Change of vmax of verapamil-stimulated Pgp ATPase activity [2]: decreased the vmax; Type of inhibition of the verapamil-stimulated ATPase activity of Pgp [2]: mixed-type transporter inhibition; Concentration present in the plasma (physiological) ([7]; ref [20]): 1–2 micromolar; LogP (octanol-water partition coefficient, LogPow) ([9]; ref PubChem Compound Database (CID)): 5.7; IC50 [8, 13]: 23.5 ± 4 µM; IC50 [8, 14]: 27.9 ± 0.7 µM; Effect on DPH anisotropy in transporter expressing compared to non-expressing cells [3]: similarly
6 | CCCCCCCCCCCCCCCC(=O)OC/C=C(C)/C=C/C=C(C)/C=C/C1=C(C)CCCC1(C)C [Retiny-palmitate, Retinyl-palmitate] | No effect | No effect | No effect | No effect | – | none of them had any effect | none of them had any effect | Effect on TMA-DPH fluorescence anisotropy, NIH 3T3 cell pair [10]: decreased the TMA-DPH anisotropies significantly
7 | CCC(=O)OC/C=C(C)/C=C/C=C(C)/C=C/C1=C(C)CCCC1(C)C [Retinyl-propionate] | No effect | No effect | No effect | No effect | – | none of them had any effect | none of them had any effect | –
8 | O=c1c(O)c(-c2ccc(O)c(O)c2)oc2cc(O)cc(O)c12 [quercetin] | – | – | – | – | – | – | – | Stimulated ATPase activity of ABCG2 ([1]; 10 μM quercetin): 60–70 nmol Pi/ mg protein/min; Stimulation of ABCG2 ATPase activity ([1]; 10 μM quercetin, maximum stimulation): ~2 fold; LogP (octanol-water partition coefficient, LogPow) ([9]; ref 2 (Rothwell et al., 2005)): 1.8
